Experimental data taken from article PMC8003416, “Modulation of Human Phenylalanine Hydroxylase by 3-Hydroxyquinolin-2(1H)-One Derivatives” (Biomolecules, 2021).

Tests used:
[1] = biological target: T1, human phenylalanine hydroxylase (hPAH) (Homo sapiens, UniProt P00439); experiment: Surface plasmon resonance, immobilized hPAH; format: binding; conditions: for KD (steady-state affinity constant) / Kd: 25 °C, 3HQs up to 200 μM, no saturation (lower limits); for Kd: read-out: KD (steady-state affinity constant)
T1 construct: Recombinant full-length wild-type (WT) hPAH was expressed in E. coli Top10 cells in fusion with a hexa-histidyl peptide; made in house; host or cells: E. coli Top10
T1 sequence (P00439 1-452): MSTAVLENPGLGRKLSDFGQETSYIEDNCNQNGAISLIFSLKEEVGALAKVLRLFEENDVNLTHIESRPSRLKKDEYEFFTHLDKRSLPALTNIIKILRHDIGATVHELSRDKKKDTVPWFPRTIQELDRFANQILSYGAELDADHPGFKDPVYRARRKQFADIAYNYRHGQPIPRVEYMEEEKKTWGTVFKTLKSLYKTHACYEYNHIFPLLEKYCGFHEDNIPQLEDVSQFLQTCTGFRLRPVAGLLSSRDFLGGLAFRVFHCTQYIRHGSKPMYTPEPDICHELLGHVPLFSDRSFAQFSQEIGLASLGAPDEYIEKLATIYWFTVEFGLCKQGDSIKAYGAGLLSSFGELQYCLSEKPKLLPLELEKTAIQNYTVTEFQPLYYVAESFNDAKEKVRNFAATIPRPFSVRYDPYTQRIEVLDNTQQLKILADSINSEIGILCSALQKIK
Method: The affinity of hPAH for 3HQs was evaluated by surface plasmon resonance (SPR) using a Biacore 4000 (GE Healthcare) instrument. All assays were carried out at 25 °C. Optimization of hPAH immobilization on a carboxymethylated dextran (CM5) matrix of the sensor chip was initiated by performing a pH scouting, using as buffers 10 mM sodium acetate (pH 5.0, 5.2, 5.5 and 5.8), 10 mM Bis-Tris (pH 6.0, 6.2 and 6.5), and 10 mM sodium phosphate (pH 7.0). hPAH was diluted to 10 µg/mL in the best immobilization buffer (10 mM sodium acetate pH 5.5) and immobilized onto the CM5 sensor chip using the standard amine coupling procedure. The HBS-N buffer, consisting of 10 mM HEPES pH 7.4 and 150 mM NaCl, was used as background buffer. Prior to immobilization, the carboxymethylated surface of the chip was activated with a 1:1 ratio of 400 mM 1-ethyl-3-(3-dimethylaminopropyl)-carbodiimide and 100 mM N-hydroxysuccinimide for 10 min. The hPAH was coupled to the surface with a 1 to 2 min injection time at a flow rate of 10 μL/min in order to reach 2000 to 5000 RU. The remaining activated carboxymethylated groups were blocked with a 7 min injection of 1 M ethanolamine pH 8.5.
The 3HQs were directly diluted in running buffer (10 mM HEPES, 150 mM NaCl, 5 mM MgCl2, 0.1 mM EDTA, 0.05% (v/v) Tween-20, 1 mM DTT, pH 7.2, and 2% DMSO) and injected at ten different concentrations using two-fold dilutions series, from 200 µM to ≈ 0.4 μM. The interaction between hPAH and L-Phe in the ≈ 2–1000 μM range was also analyzed, for comparison with literature values. Moreover, L-Phe (at 1 mM) was used as a positive control to collect information on surface integrity and activity throughout the experiment. For competition experiments, 1 mM L-Phe was added to the running buffer. All sensorgrams were processed by first subtracting the binding response recorded from the control surface (reference spot), followed by subtracting an average of the buffer blank injections from the reaction spot. Interactions were assessed from the obtained plots of steady-state SPR response levels against 3HQs concentration, employing the provided Biacore 4000 evaluation software.

[2] = biological target: T1, human phenylalanine hydroxylase (hPAH); experiment: Differential scanning fluorimetry (thermal denaturation); format: binding; conditions: for ΔTm1 (regulatory domain) / ΔTm2 (catalytic domain): 100 μM compound vs 1% DMSO control, * S.D. < 0.01
Method: Thermal denaturation profiles of recombinant hPAH were obtained by differential scanning fluorimetry (DSF) in a C1000 Touch thermal cycler equipped with a CFX96 optical reaction module (Bio-Rad; Hercules, CA, USA) as previously described. Briefly, DSF assays (n = 3) were performed using 100 μg/mL hPAH tetramers (final concentration of 0.45 μM of tetramer), SYPRO Orange (5000-fold commercially available stock solution; Invitrogen; Carlsbad, CA, USA) at a 2.5-x final concentration and ramping the temperature from 20 to 90 °C, at 1 °C/min. Fluorescence data were acquired using the FRET channel. Data were processed using CFX Manager Software V3.0 (Bio-Rad) and the GraphPad Prism. Temperature scan curves were fitted to a biphasic dose–response function and the Tm values were obtained from the midpoint of the first (Tm1) and second transitions (Tm2) corresponding, respectively, to the thermal denaturation of the regulatory and catalytic domains. The Tm values in the presence of 3HQ were compared to those obtained in the presence of 1% DMSO (vehicle control) and a change in the Tm was considered significant when the |ΔTm| ≥ 2 °C [22].

[3] = 100 μM compound in 1% DMSO, control 43.4 ± 0.6
[4] = 100 μM compound in 1% DMSO, control 53.5 ± 0.4

Structure (SMILES)	KD (steady-state affinity constant) [1]	Tm1 (regulatory domain) [2, 3]	Tm2 (catalytic domain) [2, 4]	ΔTm1 (regulatory domain) [2]	ΔTm2 (catalytic domain) [2]	Kd [1]	Tm1 (regulatory domain) ([2]; 1 mM L-Phe, 1% DMSO)	Tm2 (catalytic domain) ([2]; 1 mM L-Phe, 1% DMSO)	ΔRU reduction in the presence of L-Phe ([1]; 1 mM L-Phe in running buffer)
COC(=O)CC[C@H](NC(=O)c1c(O)c(=O)[nH]c2ccc(OC(F)(F)F)cc12)C(=O)OC [Compound 9]	at least mM affinity	43.5 ± 0.1 °C	53.0 ± 0.1 °C	+0.2 ± 0.01 °C	-0.5 ± 0.01 °C				
O=C(NCCc1ccccc1)c1c(O)c(=O)[nH]c2ccc(OC(F)(F)F)cc12 [Compound 8]		43.3 ± 0.1 °C	52.2 ± 0.3 °C		-1.3 ± 0.01 °C	≥ 200 µM			
N[C@@H](Cc1ccccc1)C(=O)O [L-Phe, L-phenylalanine, reference compound]						47 ± 8 µM	51.0 ± 0.2 °C	58.4 ± 0.04 °C	
CCOC(=O)[C@H](Cc1ccccc1)NC(=O)c1c(O)c(=O)[nH]c2ccc(OC(F)(F)F)cc12 [Compound 3]		51.7 ± 0.4 °C	53.6 ± 0.2 °C	+8.3 ± 0.06 °C	+0.1 ± 0.01 °C	≥ 121 µM			> 50%
COC(=O)CNC(=O)c1c(O)c(=O)[nH]c2ccc(OC(F)(F)F)cc12 [Compound 11]	at least mM affinity	47.4 ± 0.1 °C	53.6 ± 0.2 °C	+4.0 ± 0.01 °C					
